What all share (assay): NCI tumour cell line growth inhibition, 48 h
Test [1] relates to SW-620 colon.
Test [2] relates to T-47D breast.
The test system of test [3] is M14 melanoma.
Test [4] deals with RPMI-8226 leukemia.
The subject of test [5] is K-562 leukemia.
The subject of test [6] is SF-268 CNS.
For test [7], the system named is SK-MEL-5 melanoma.
Test [8] relates to CCRF-CEM leukemia.
Test [9] has as its system OVCAR-3 ovarian.
For test [10], the system named is RXF 393 renal.

Here are results for 13 compounds from PubChem BioAssay (NCI).

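Assay format: 96-well plates, 48-hour exposure. Here, GI50 denotes the concentration required for 50% inhibition of growth. TGI denotes the concentration required for complete inhibition of growth.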 Some results are limits rather than exact numbers.

For `COc1cc2oc(=O)ccc2cc1C(=O)CC(C)C`, the TGI in test [1], in test [2], in test [3], in test [4], in test [5] and in [6] was > 100 µM throughout. Further, the TGI in [7], in test [8] and in test [9] was > 100 µM throughout.

`CC(C)(C)OC(=O)NC(CCCCNC(=O)OCc1ccccc1)C(=O)NCCNc1ccc(NCCNC(=O)C(CCCCNC(=O)OCc2ccccc2)NC(=O)OC(C)(C)C)c2c1C(=O)c1ccccc1C2=O` (stereo not drawn): the TGI is > 100 µM in test [1]; 28 µM in test [2]; > 100 µM in [3]; > 27.4 µM in [4]; > 100 µM in test [5]; > 64.6 µM in test [6]. Besides, the TGI in test [10] is 88.9 µM; in test [7], > 100 µM; in test [8] it was > 100 µM; in [9] it was > 100 µM.

Turning to `CC(=O)OC1CC[C@@]2(C)C(=CC[C@@H]3[C@@H]2CC[C@]2(C)Nc4nn(S(C)(=O)=O)cc4C[C@@H]32)C1` (stereo partly drawn), the TGI in [2] is 54.5 µM; in test [3], 36.3 µM; in test [4], > 100 µM; in test [5], > 100 µM; in [10], 95.3 µM; in test [7] it was 28.4 µM. Moreover, the TGI was found to be 38.5 µM in test [8] and 57.8 µM in [9].

`O=C(CSc1nc2ccc([N+](=O)[O-])cc2s1)c1ccc2ccccc2c1`: the TGI in test [1], in [2], in [3], in test [4], in test [5] and in [6] was > 100 µM in each case. The TGI in [10], in [7], in [8] and in test [9] was > 100 µM throughout.

Regarding `Cc1ccccc1N=Nc1c(O)c(S(=O)(=O)O)cc2cc(S(=O)(=O)O)ccc12`, the TGI in [1], in [2], in [3], in test [5], in test [6] and in [10] was > 100 µM in each case. Further, the TGI in [7], in [8] and in [9] was > 100 µM throughout.

Turning to `Cn1c(=O)[nH]c2nncnc2c1=O`, the TGI in test [1] was > 625 µM; in [4], 389 µM; in [5] it was > 519 µM; in test [6], > 625 µM; in test [10], 123 µM; in test [7], 177 µM. The TGI in test [8] is > 625 µM; in [9] it was 298 µM.

With `Nc1ncnc2c1sc1nc3ccccc3n12`, the TGI in [1], in test [2], in test [3], in [4], in test [5] and in test [6] was > 100 µM each time. For the same compound, the TGI in [10] is > 69.1 µM; in [7], > 100 µM; in test [8], > 100 µM; in test [9] it was > 100 µM.

Turning to `COCC1CCCN1c1ccc(C=N/C(C#N)=C(\N)C#N)cc1` (stereo not drawn), the GI50 was > 100 µM in [1]; > 100 µM in test [2]; > 100 µM in test [3]; 67.8 µM in [6]; 38.4 µM in [10]; 98.2 µM in test [7]. Moreover, the GI50 was 3.22 µM in [8] and 46.1 µM in [9]. Further, the TGI in test [1], in test [2], in test [3], in test [6], in test [10] and in test [7] was > 100 µM in each case. Further, the TGI in test [8] and in [9] was > 100 µM throughout.

On to `O=c1c2cc(I)ccc2nc(SCc2nncs2)n1Cc1ccccc1`, for which the TGI in [1], in [2], in [3], in [4], in [5] and in [6] was > 100 µM in each case. Further, the TGI in test [10] was 81.6 µM; in test [7], 88.3 µM; in [8] it was 70.8 µM; in test [9] it was > 100 µM.

Consider `Clc1ccccc1/C=c1\nc(-c2ccccc2)n2c1nc1ccccc12`, for which the TGI in test [1] was > 100 µM; in [2], > 100 µM; in [3], > 100 µM; in test [4], > 100 µM; in test [5] it was > 100 µM; in test [6] it was 54.6 µM. Besides, the TGI in test [10] was 41.9 µM; in test [7], > 100 µM; in test [8], > 100 µM; in [9], > 100 µM.

As to `COc1ccc(C(=O)C2=NON3OC23C(=O)c2ccc(OC)cc2)cc1` (stereo not drawn), the TGI in test [1] was 11.4 µM; in test [3] it was 31 µM; in test [4] it was > 50.7 µM; in test [5], 8.29 µM; in test [6], 40.2 µM; in test [10], 17.1 µM. The values for the TGI in test [7] and in test [9] were 29.3 µM and 23.3 µM, respectively.

Take `Cc1coc2c1C[C@@]1(C)[C@H](CCC[C@@H]1C)[C@H]2O`: the TGI in test [1] is > 100 µM; in [2], 84.2 µM; in test [3] it was > 100 µM; in [4], 62.3 µM; in test [5], > 100 µM; in test [6], > 100 µM. In addition, the TGI in [10] is 48.8 µM; in test [7], 28.9 µM; in test [8] it was > 100 µM; in test [9] it was 57.8 µM.

Regarding `COc1c(CC=C(C)C)c(O)c(C(CC(C)C)c2c(O)c3c(c(C(C)=O)c2O)OC(C(C)(C)O)C3)c(O)c1C(C)=O` (stereo not drawn), the TGI is > 12.5 µM in test [1]; 9.21 µM in test [2]; > 12.5 µM in test [3]; 3.19 µM in [4]; 9.11 µM in test [5]; > 12.5 µM in [6]. In addition, the TGI in [10] is 10.9 µM; in [7], 4.44 µM; in test [8] it was 9.74 µM; in [9], > 12.5 µM.
